Paper PMC6502651 (ChemMedChem, 2019)
pIC50: −log10 of the molar value.

What was measured:
Format in all cases: cell-based
[1] = tested on: P. berghei exo-erythrocytic forms; experiment: P. berghei-Luc liver stage assay; details: for Selectivity index (SI) = (mammalian cell IC50)/(Pb EEF IC50): HepG2 vs Pb EEF; for pIC50: Plasmodium berghei, 48 h, read-out: Pb EEF IC50
[2] = tested on: 3D7 line of P. falciparum; experiment: P. falciparum asexual intraerythrocytic growth inhibition; details: for pIC50: Plasmodium falciparum, 3D7, read-out: IC50 (Pf3D7); for Selectivity index (SI) = (mammalian cell IC50)/(P. falciparum IC50): HepG2 vs Pf3D7
HepG2 cells = experiment: HepG2 cytotoxicity bioluminescence assay; details: Homo sapiens, HepG2, 48 h, read-out: IC50 (HepG2)

Compound	Selectivity index (SI) = (mammalian cell IC50)/(Pb EEF IC50) [1]	pIC50 [1]	pIC50 [2]	pIC50 (HepG2 cells)	Selectivity index (SI) = (mammalian cell IC50)/(P. falciparum IC50) [2]
CC(C)c1ccc(C(=O)N(CC(=O)NC2CCCCC2)c2ccc(C(=O)NO)cc2)cc1 [Compound 2a, N-(2-(cyclohexylamino)-2-oxoethyl)-N-(4-(hydroxycarbamoyl)phenyl)-4-isopropylbenzamid]	4	5.01	4.11 to 6.24		
Cc1cc(C)cc(C(=O)N(CC(=O)NC2CCCCC2)c2ccc(C(=O)NO)cc2)c1 [Compound 2b, N-(2-(cyclohexylamino)-2-oxoethyl)-N-(4-(hydroxycarbamoyl)phenyl)-3,5-dimethylbenzamide]	2	4.69	4.11 to 6.24		
Cc1cc(C)cc(C(=O)N(CC(=O)NCc2ccccc2)Cc2ccc(C(=O)NO)cc2)c1 [Compound 2j, N-(2-(Benzylamino)-2-oxoethyl)-N-(4-(hydroxycarbamoyl)benzyl)-3,5-dimethylbenzamide]	131	7.14	7.43	5.02	259
Cc1ccc(CNC(=O)CN(Cc2ccc(C(=O)NO)cc2)C(=O)c2cc(C)cc(C)c2)cc1 [Compound 2k, N-(4-(Hydroxycarbamoyl)benzyl)-3,5-dimethyl-N-(2-((4-methylbenzyl)amino)-2-oxoethyl)benzamide]	70	6.68			
Cc1cc(C)cc(C(=O)N(CC(=O)NCc2ccc(F)cc2)Cc2ccc(C(=O)NO)cc2)c1 [Compound 2m, N-(2-((4-Fluorobenzyl)amino)-2-oxoethyl)-N-(4-(hydroxycarbamoyl)benzyl)-3,5-dimethylbenzamide]	185	6.96			
Cc1cc(C)cc(C(=O)N(CC(=O)NCc2ccc(Cl)cc2)Cc2ccc(C(=O)NO)cc2)c1 [Compound 2n, N-(2-((4-Chlorobenzyl)amino)-2-oxoethyl)-N-(4-(hydroxycarbamoyl)benzyl)-3,5-dimethylbenzamide]	21	6.00			
Cc1cc(C)cc(C(=O)N(CC(=O)NCc2ccc(C(C)(C)C)cc2)Cc2ccc(C(=O)NO)cc2)c1 [Compound 2o, N-(2-((4-(tert-Butyl)benzyl)amino)-2-oxoethyl)-N-(4-(hydroxycarbamoyl)benzyl)-3,5-dimethylbenzamide]	2	4.78			
Cc1cccc(CNC(=O)CN(Cc2ccc(C(=O)NO)cc2)C(=O)c2cc(C)cc(C)c2)c1 [Compound 2q, N-(4-(Hydroxycarbamoyl)benzyl)-3,5-dimethyl-N-(2-((3-methylbenzyl)amino)-2-oxoethyl)benzamide]	157	6.89			
Cc1cc(C)cc(C(=O)N(CC(=O)NCc2cccnc2)Cc2ccc(C(=O)NO)cc2)c1 [Compound 2r, N-(4-(Hydroxycarbamoyl)benzyl)-3,5-dimethyl-N-(2-oxo-2-((pyridin-3-ylmethyl)amino)ethyl)benzamide]	3	4.78	7.10	4.38	530
CCN(CC)CCCC(C)Nc1ccnc2cc(Cl)ccc12 (stereo not drawn) [chloroquine, reference compound]			8.17		
